Experimental data reported in ChEMBL document CHEMBL5154852, “Design, synthesis, and biological evaluations of substituted pyrazoles as pyrrolomycin analogues against staphylococcal biofilm” (Eur J Med Chem, 2022).
Values after ≈ are worked out from the molar mass of the structure shown. Values joined by “and” are separate entries in the source; they are usually repeats but may differ in a detail not shown here. Identical values can stand only once. Active and inactive are the calls of the source. The rule behind the calls is not given here.

Columns and labels:
Staphylococcus aureus [1] = assay: Antibacterial activity against vancomycin-susceptible methicillin-susceptible Staphylococcus aureus Newman incubated for 24 hrs by broth microdilution method; type: functional
Staphylococcus aureus [2] = assay: Antimicrobial activity against methicillin-resistant Staphylococcus aureus USA300 LAC incubated for 24 hrs by broth microdilution method; type: functional
Staphylococcus aureus [3] = assay: Antibacterial activity against vancomycin-intermediate Staphylococcus aureus Mu50 incubated for 24 hrs by broth microdilution method; type: functional
Enterococcus faecalis [4] = assay: Antibacterial activity against vancomycin-resistant, teicoplanin sensitive Enterococcus faecalis VanB01 incubated for 24 hrs by broth microdilution method; type: functional
Enterococcus faecalis [5] = assay: Antibacterial activity against vancomycin-resistant, teicoplanin sensitive Enterococcus faecalis HS08257 incubated for 24 hrs by broth microdilution method; type: functional
Enterococcus faecalis [6] = assay: Antibacterial activity against vancomycin-resistant, teicoplanin sensitive Enterococcus faecalis HS0847 incubated for 24 hrs by broth microdilution method; type: functional
Enterococcus faecalis [7] = assay: Antibacterial activity against vancomycin-resistant, teicoplanin resistant Enterococcus faecalis HS06188 incubated for 24 hrs by broth microdilution method; type: functional
Enterococcus faecalis [8] = assay: Antibacterial activity against vancomycin-resistant, teicoplanin resistant Enterococcus faecalis HS0649 incubated for 24 hrs by broth microdilution method; type: functional
Staphylococcus aureus [9] = assay: Antimicrobial activity against methicillin-resistant Staphylococcus aureus USA400 MW2 incubated for 24 hrs by broth microdilution method; type: functional
Staphylococcus aureus [10] = assay: Antimicrobial activity against methicillin-resistant Staphylococcus aureus NRS100 incubated for 24 hrs by broth microdilution method; type: functional
Staphylococcus aureus [11] = assay: Antimicrobial activity against methicillin and linezoid-resistant Staphylococcus aureus NRS271 incubated for 24 hrs by broth microdilution method; type: functional
Staphylococcus aureus [12] = assay: Antibiofilm activity against methicillin-resistant Staphylococcus aureus USA300 LAC assessed as decrease in biofilm formation at 0.0625 ug/ml measured by crystal violet staining assay; type: functional, organism-based; conditions: dose 0.0625 µg/ml
[13] = Cytotoxicity against human L02 cells after 72 hrs by CCK-8 assay; type: toxicity, cell-based
[14] = Selectivity index, ratio of IC50 for L02 cell cytotoxicity over MIC for vancomycin-susceptible methicillin-susceptible Staphylococcus aureus Newman; type: toxicity; conditions: human, L02 cells
[15] = Metabolic stability in human liver microsomes assessed metabolic bioavailability at 0.1 uM in presence of NADPH measured by LC-MS/MS analysis; type: ADME, Microsome; conditions: read-out: Stability
[16] = Metabolic stability in mouse liver microsomes assessed metabolic bioavailability at 0.1 uM in presence of NADPH measured by LC-MS/MS analysis; type: ADME, Microsome; conditions: read-out: Stability
[17] = Metabolic stability in dog liver microsomes assessed metabolic bioavailability at 0.1 uM in presence of NADPH measured by LC-MS/MS analysis; type: ADME, Canis lupus familiaris, Microsome; conditions: read-out: Stability
[18] = Metabolic stability in monkey liver microsomes assessed metabolic bioavailability at 0.1 uM in presence of NADPH measured by LC-MS/MS analysis; type: ADME, Macaca mulatta, Microsome; conditions: rhesus monkey, read-out: Stability

Cc1n[nH]c2c(=O)c3c(O)c(Cl)cc(Cl)c3oc12
MIC (Staphylococcus aureus [1]): > 256 mg/L | MIC (Staphylococcus aureus [2]): > 256 mg/L | MIC (Staphylococcus aureus [3]): > 256 mg/L

N#Cc1n[nH]c2c(=O)c3ccccc3sc12
MIC (Staphylococcus aureus [1]): 8 mg/L (≈ 35.2 µM) | MIC (Staphylococcus aureus [2]): 32 mg/L (≈ 141 µM) | MIC (Staphylococcus aureus [3]): 32 mg/L (≈ 141 µM)

N#Cc1cc(C(=O)c2cc(Cl)c(Cl)cc2O)[nH]n1
MIC (Staphylococcus aureus [1]): 0.25 mg/L (≈ 0.886 µM) | MIC (Staphylococcus aureus [2]): 0.25 mg/L (≈ 0.886 µM) | MIC (Staphylococcus aureus [3]): 0.25 mg/L (≈ 0.886 µM) | MIC (Enterococcus faecalis [4]): 1 mg/L (≈ 3.55 µM) | MIC (Enterococcus faecalis [5]): 0.25 mg/L (≈ 0.886 µM) | MIC (Enterococcus faecalis [6]): 0.5 mg/L (≈ 1.77 µM) | MIC (Enterococcus faecalis [7]): > 128 mg/L | MIC (Enterococcus faecalis [8]): 0.5 mg/L (≈ 1.77 µM) | MIC (Staphylococcus aureus [9]): < 0.125 mg/L | MIC (Staphylococcus aureus [10]): 0.5 mg/L (≈ 1.77 µM) | MIC (Staphylococcus aureus [11]): 1 mg/L (≈ 3.55 µM) | Activity (Staphylococcus aureus [12]): Active | IC50 at 72 h [13]: 10.7 µM and 3.02 µg/mL | selectivity ratio [14]: > 12 | Fh at 0.1 µM [15]: 69.7% | Fh at 0.1 µM [16]: 10.2% | Fh at 0.1 µM [17]: 9.79% | Fh at 0.1 µM [18]: 85.6%

N#Cc1n[nH]c2c(=O)c3c(O)c(Cl)cc(Cl)c3oc12
MIC (Staphylococcus aureus [1]): 4 mg/L (≈ 13.5 µM) | MIC (Staphylococcus aureus [2]): 8 mg/L (≈ 27 µM) | MIC (Staphylococcus aureus [3]): 8 mg/L (≈ 27 µM)

N#Cc1cc(C(=O)c2cc(Cl)cc(Cl)c2O)[nH]n1
MIC (Staphylococcus aureus [1]): 2 mg/L (≈ 7.09 µM) | MIC (Staphylococcus aureus [2]): 2 mg/L (≈ 7.09 µM) | MIC (Staphylococcus aureus [3]): 2 mg/L (≈ 7.09 µM)

N#Cc1cc(C(=O)c2cc(Cl)c(F)cc2O)[nH]n1
MIC (Staphylococcus aureus [1]): 0.5 mg/L (≈ 1.88 µM) | MIC (Staphylococcus aureus [2]): 0.5 mg/L (≈ 1.88 µM) | MIC (Staphylococcus aureus [3]): 0.5 mg/L (≈ 1.88 µM)

O=C(c1cc(C(F)(F)F)n[nH]1)c1cc(F)c(F)cc1O
MIC (Staphylococcus aureus [1]): 0.5 mg/L (≈ 1.71 µM) | MIC (Staphylococcus aureus [2]): 0.5 mg/L (≈ 1.71 µM) | MIC (Staphylococcus aureus [3]): 1 mg/L (≈ 3.42 µM)

N#Cc1n[nH]c2c1S(=O)(=O)c1ccccc1C2=O
MIC (Staphylococcus aureus [1]): > 256 mg/L | MIC (Staphylococcus aureus [2]): > 256 mg/L | MIC (Staphylococcus aureus [3]): > 256 mg/L

Cc1cc(C(=O)c2cc(C#N)n[nH]2)c(O)cc1F
MIC (Staphylococcus aureus [1]): 0.5 mg/L (≈ 2.04 µM) | MIC (Staphylococcus aureus [2]): 0.5 mg/L (≈ 2.04 µM) | MIC (Staphylococcus aureus [3]): 0.25 mg/L (≈ 1.02 µM)

O=c1c2[nH]nc(C(F)(F)F)c2oc2c(Cl)cc(Cl)c(O)c12
MIC (Staphylococcus aureus [1]): 1 mg/L (≈ 2.95 µM) | MIC (Staphylococcus aureus [2]): 2 mg/L (≈ 5.9 µM) | MIC (Staphylococcus aureus [3]): 1 mg/L (≈ 2.95 µM)

O=C1c2[nH]nc(C(F)(F)F)c2S(=O)(=O)c2c(Cl)cc(Cl)c(O)c21
MIC (Staphylococcus aureus [1]): 128 mg/L (≈ 331 µM) | MIC (Staphylococcus aureus [2]): 256 mg/L (≈ 661 µM) | MIC (Staphylococcus aureus [3]): 256 mg/L (≈ 661 µM)

CN[C@H](CC(C)C)C(=O)N[C@H]1C(=O)N[C@@H](CC(N)=O)C(=O)N[C@H]2C(=O)N[C@H]3C(=O)N[C@H](C(=O)N[C@H](C(=O)O)c4cc(O)cc(O)c4-c4cc3ccc4O)[C@H](O)c3ccc(c(Cl)c3)Oc3cc2cc(c3O[C@@H]2O[C@H](CO)[C@@H](O)[C@H](O)[C@H]2O[C@H]2C[C@](C)(N)[C@H](O)[C@H](C)O2)Oc2ccc(cc2Cl)[C@H]1O [VANCOMYCIN]
MIC (Staphylococcus aureus [3]): 8 mg/L (≈ 5.52 µM) | MIC (Enterococcus faecalis [4]): 0.25 mg/L (≈ 0.173 µM) | MIC (Enterococcus faecalis [5]): < 0.125 mg/L | MIC (Enterococcus faecalis [6]): 0.25 mg/L (≈ 0.173 µM) | MIC (Enterococcus faecalis [7]): 2 mg/L (≈ 1.38 µM) | MIC (Enterococcus faecalis [8]): 0.5 mg/L (≈ 0.345 µM) | MIC (Staphylococcus aureus [9]): < 0.125 mg/L | IC50 at 72 h [13]: > 30 µM and > 43 µg/mL

O=C(O)c1cn(C2CC2)c2cc(N3CCNCC3)c(F)cc2c1=O [CIPROFLOXACIN]
MIC (Staphylococcus aureus [1]): 0.25 mg/L (≈ 0.754 µM) | MIC (Staphylococcus aureus [2]): 2 mg/L (≈ 6.04 µM) | MIC (Staphylococcus aureus [3]): 32 mg/L (≈ 96.6 µM) | IC50 at 72 h [13]: 12.2 µM and 4.05 µg/mL

Cc1cc(C(=O)c2cc(C(F)(F)F)n[nH]2)c(O)cc1F
MIC (Staphylococcus aureus [1]): 0.25 mg/L (≈ 0.867 µM) | MIC (Staphylococcus aureus [2]): 0.25 mg/L (≈ 0.867 µM) | MIC (Staphylococcus aureus [3]): 1 mg/L (≈ 3.47 µM)

O=C(c1cc(C(F)(F)F)n[nH]1)c1cc(Cl)c(F)cc1O
MIC (Staphylococcus aureus [1]): 0.25 mg/L (≈ 0.81 µM) | MIC (Staphylococcus aureus [2]): 0.25 mg/L (≈ 0.81 µM) | MIC (Staphylococcus aureus [3]): 0.25 mg/L (≈ 0.81 µM) | MIC (Enterococcus faecalis [4]): 1 mg/L (≈ 3.24 µM) | MIC (Enterococcus faecalis [5]): 0.5 mg/L (≈ 1.62 µM) | MIC (Enterococcus faecalis [6]): 0.5 mg/L (≈ 1.62 µM) | MIC (Enterococcus faecalis [7]): > 128 mg/L | MIC (Enterococcus faecalis [8]): 1 mg/L (≈ 3.24 µM) | MIC (Staphylococcus aureus [9]): 0.25 mg/L (≈ 0.81 µM) | MIC (Staphylococcus aureus [10]): 0.25 mg/L (≈ 0.81 µM) | MIC (Staphylococcus aureus [11]): > 128 mg/L

N#Cc1n[nH]c2c(=O)c3c(O)c(Cl)cc(Cl)c3sc12
MIC (Staphylococcus aureus [1]): 2 mg/L (≈ 6.41 µM) | MIC (Staphylococcus aureus [2]): 2 mg/L (≈ 6.41 µM) | MIC (Staphylococcus aureus [3]): 2 mg/L (≈ 6.41 µM)

O=c1c2[nH]nc(C(F)(F)F)c2sc2c(Cl)cc(Cl)c(O)c12
MIC (Staphylococcus aureus [1]): 2 mg/L (≈ 5.63 µM) | MIC (Staphylococcus aureus [2]): 2 mg/L (≈ 5.63 µM) | MIC (Staphylococcus aureus [3]): 1 mg/L (≈ 2.82 µM)

COC(=O)c1n[nH]c2c(=O)c3c(O)c(Cl)cc(Cl)c3oc12
MIC (Staphylococcus aureus [1]): 4 mg/L (≈ 12.2 µM) | MIC (Staphylococcus aureus [2]): 16 mg/L (≈ 48.6 µM) | MIC (Staphylococcus aureus [3]): 16 mg/L (≈ 48.6 µM)

O=C1c2ccccc2S(=O)(=O)c2c(C(F)(F)F)n[nH]c21
MIC (Staphylococcus aureus [1]): > 256 mg/L | MIC (Staphylococcus aureus [2]): > 256 mg/L | MIC (Staphylococcus aureus [3]): > 256 mg/L

O=C(O)c1n[nH]c2c(=O)c3c(O)c(Cl)cc(Cl)c3oc12
MIC (Staphylococcus aureus [1]): > 256 mg/L | MIC (Staphylococcus aureus [2]): > 256 mg/L | MIC (Staphylococcus aureus [3]): > 256 mg/L

NC(=O)c1n[nH]c2c(=O)c3c(O)c(Cl)cc(Cl)c3oc12
MIC (Staphylococcus aureus [1]): > 256 mg/L | MIC (Staphylococcus aureus [2]): > 256 mg/L | MIC (Staphylococcus aureus [3]): > 256 mg/L

O=C(c1cc(C(F)(F)F)n[nH]1)c1cc(Cl)c(Cl)cc1O
MIC (Staphylococcus aureus [1]): 0.0625 mg/L (≈ 0.192 µM) | MIC (Staphylococcus aureus [2]): 0.0625 mg/L (≈ 0.192 µM) | MIC (Staphylococcus aureus [3]): 0.0312 mg/L (≈ 0.0961 µM) | MIC (Enterococcus faecalis [4]): 0.5 mg/L (≈ 1.54 µM) | MIC (Enterococcus faecalis [5]): < 0.125 mg/L | MIC (Enterococcus faecalis [6]): 0.25 mg/L (≈ 0.769 µM) | MIC (Enterococcus faecalis [7]): > 128 mg/L | MIC (Enterococcus faecalis [8]): 0.5 mg/L (≈ 1.54 µM) | MIC (Staphylococcus aureus [9]): 0.25 mg/L (≈ 0.769 µM) | MIC (Staphylococcus aureus [10]): 0.5 mg/L (≈ 1.54 µM) | MIC (Staphylococcus aureus [11]): > 128 mg/L | Activity (Staphylococcus aureus [12]): Active | IC50 at 72 h [13]: 2.57 µM and 0.84 µg/mL | selectivity ratio [14]: > 13 | Fh at 0.1 µM [15]: 42% | Fh at 0.1 µM [16]: 10.1% | Fh at 0.1 µM [17]: 7.07% | Fh at 0.1 µM [18]: 28.6%

O=c1c2ccccc2sc2c(C(F)(F)F)n[nH]c12
MIC (Staphylococcus aureus [1]): > 256 mg/L | MIC (Staphylococcus aureus [2]): > 256 mg/L | MIC (Staphylococcus aureus [3]): > 256 mg/L
